Reference: patent US9481648B2, “Kinase inhibitors” (Respivert Limited, priority 2013, dated 2016)
Read-outs that look alike come from different tables or passages of the source.

Key:
non-mutant kinases = type: binding; conditions: for KinomeScan Selectivity Score S(10): (number of non-mutant kinases with % Ctrl <10)/(number of non-mutant kinases tested); for KinomeScan Selectivity Score S(35): (number of non-mutant kinases with % Ctrl <35)/(number of non-mutant kinases tested); for number of individual kinase hits, S(1): non-mutant kinases with % Ctrl <1; for number of individual kinase hits, S(10): non-mutant kinases with % Ctrl <10; for number of individual kinase hits, S(35): non-mutant kinases with % Ctrl <35; for KinomeScan Selectivity Score S(1): (number of non-mutant kinases with % Ctrl <1)/(number of non-mutant kinases tested); for selectivity compared to the Reference Compound: as evidenced by lower selectivity scores
Protocol: These assays may be conducted by DiscoverX (formerly Ambit; San Diego, Calif.). The percentage inhibition produced by incubation with a test compound may be calculated relative to the non-inhibited control.

p38 MAPKα (MAPK14) = p38 MAPKα (MAPK14) (Homo sapiens (Human), UniProt Q16539); assay: p38 MAPKα enzyme inhibition (FRET, Z-LYTE; Method 2); type: biochemical
Chain of p38 MAPKα (MAPK14) (Q16539 whole entry): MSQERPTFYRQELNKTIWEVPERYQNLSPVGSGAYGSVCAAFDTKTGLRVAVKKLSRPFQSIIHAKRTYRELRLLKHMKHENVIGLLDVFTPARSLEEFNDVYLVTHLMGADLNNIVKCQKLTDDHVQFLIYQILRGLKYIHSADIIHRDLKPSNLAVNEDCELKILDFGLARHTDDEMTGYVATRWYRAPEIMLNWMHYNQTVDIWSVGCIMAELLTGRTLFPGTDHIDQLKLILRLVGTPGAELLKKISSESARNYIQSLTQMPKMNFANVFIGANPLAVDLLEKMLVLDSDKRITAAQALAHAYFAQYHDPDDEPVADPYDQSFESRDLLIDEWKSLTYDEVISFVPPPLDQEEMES

Syk = Syk (Homo sapiens (Human), UniProt P43405); assay: Syk enzyme inhibition (FRET, Z-LYTE); type: biochemical
Outline: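 Syk or c-Src enzyme (3000 or 2000 ng/mL solutions) was preincubated 2 h at RT with compound solutions at 1, 0.1, 0.01 or 0.001 µg/mL. Z-LYTE FRET peptide (8 µM solution) and ATP (800 µM solution for c-Src, 60 µM for Syk) were then added for 1 h, followed by protease development for 1 h. Phosphorylation was read as the coumarin/fluorescein emission ratio.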

hERG channel = hERG channel (Homo sapiens (Human), UniProt Q12809); assay: hERG inhibition (IonWorks patch clamp electrophysiology); type: cell-based; conditions: human, 3 μM
Chain of hERG channel (Q12809 whole entry): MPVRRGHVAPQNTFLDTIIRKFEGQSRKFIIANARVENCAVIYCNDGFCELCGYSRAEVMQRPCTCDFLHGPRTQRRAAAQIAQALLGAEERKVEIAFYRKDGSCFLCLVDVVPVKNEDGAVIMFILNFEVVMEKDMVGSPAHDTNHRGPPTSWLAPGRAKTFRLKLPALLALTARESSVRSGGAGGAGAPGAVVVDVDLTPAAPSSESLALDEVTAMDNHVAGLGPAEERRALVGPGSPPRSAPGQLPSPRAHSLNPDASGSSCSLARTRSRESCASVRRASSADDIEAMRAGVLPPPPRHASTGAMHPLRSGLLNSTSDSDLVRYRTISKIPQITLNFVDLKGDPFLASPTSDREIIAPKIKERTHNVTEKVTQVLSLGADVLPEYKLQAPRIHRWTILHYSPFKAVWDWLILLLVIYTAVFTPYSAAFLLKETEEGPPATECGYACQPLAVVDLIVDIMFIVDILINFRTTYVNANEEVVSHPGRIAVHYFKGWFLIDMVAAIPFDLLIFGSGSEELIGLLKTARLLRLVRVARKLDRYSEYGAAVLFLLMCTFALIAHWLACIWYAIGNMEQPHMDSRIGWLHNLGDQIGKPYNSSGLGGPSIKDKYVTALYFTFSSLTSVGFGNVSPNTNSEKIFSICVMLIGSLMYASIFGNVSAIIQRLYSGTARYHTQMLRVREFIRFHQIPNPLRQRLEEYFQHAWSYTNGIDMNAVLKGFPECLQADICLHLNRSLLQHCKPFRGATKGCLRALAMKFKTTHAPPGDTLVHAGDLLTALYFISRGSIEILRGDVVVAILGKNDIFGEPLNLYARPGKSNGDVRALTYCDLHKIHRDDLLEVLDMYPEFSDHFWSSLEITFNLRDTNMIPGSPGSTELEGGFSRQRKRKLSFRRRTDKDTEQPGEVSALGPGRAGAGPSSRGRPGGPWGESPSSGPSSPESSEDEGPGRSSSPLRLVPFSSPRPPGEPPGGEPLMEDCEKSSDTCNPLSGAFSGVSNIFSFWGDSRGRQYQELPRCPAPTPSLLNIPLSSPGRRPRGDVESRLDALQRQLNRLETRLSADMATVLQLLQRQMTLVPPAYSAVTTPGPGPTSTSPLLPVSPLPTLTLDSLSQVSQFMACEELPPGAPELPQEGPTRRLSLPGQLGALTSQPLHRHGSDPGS
Protocol: (§1) Compounds of the invention were tested for inhibition of the human ether a go-go (hERG) channel using IonWorks™ patch clamp electrophysiology at Essen Bioscience (Welwyn Garden City, England).

[1] = target: human ether a go-go (hERG) channel (Homo sapiens (Human), UniProt Q12809); assay: as above; type: cell-based; conditions: IonWorks patch clamp
Chain of human ether a go-go (hERG) channel (Q12809 whole entry): as above
Protocol: as §1

[2] = test system: intestinal mucosa biopsies from the inflamed regions of the colon of ulcerative colitis (IBD) patients; assay: Human biopsy assay (assay l); type: cell-based; conditions: 1 μg/mL; for cytokine (IL-1β, IL-6 and IL-8) release compared to the DMSO control: 24 hours, biopsies from ulcerative colitis patients; for Cytokine release from biopsies of UC patients: IL-1β release / Cytokine release from biopsies of UC patients: IL-6 release / Cytokine release from biopsies of UC patients: IL-8 release: 24 hr, relative to DMSO control = 100%
Protocol: Intestinal mucosa biopsies are obtained from the inflamed regions of the colons of IBD patients. The biopsy material is cut into small pieces (2-3 mm) and placed on steel grids in an organ culture chamber at 37° C. in a 5% CO2/95% O2 atmosphere in serum-free media. DMSO control or test compounds at the desired concentration are added to the tissue and incubated for 24 hr in the organ culture chamber. The supernatant is harvested for determination of IL-6, IL-8, IL-1β and TNFα levels by R&D ELISA.

CYP2C9 = CYP2C9 (Homo sapiens (Human), UniProt P11712); assay: CYP2C9 inhibition study; type: in vitro ADME; conditions: for inhibition at 15 µM: human, read-out: 15 μM % Inh
Chain of CYP2C9 (P11712 whole entry): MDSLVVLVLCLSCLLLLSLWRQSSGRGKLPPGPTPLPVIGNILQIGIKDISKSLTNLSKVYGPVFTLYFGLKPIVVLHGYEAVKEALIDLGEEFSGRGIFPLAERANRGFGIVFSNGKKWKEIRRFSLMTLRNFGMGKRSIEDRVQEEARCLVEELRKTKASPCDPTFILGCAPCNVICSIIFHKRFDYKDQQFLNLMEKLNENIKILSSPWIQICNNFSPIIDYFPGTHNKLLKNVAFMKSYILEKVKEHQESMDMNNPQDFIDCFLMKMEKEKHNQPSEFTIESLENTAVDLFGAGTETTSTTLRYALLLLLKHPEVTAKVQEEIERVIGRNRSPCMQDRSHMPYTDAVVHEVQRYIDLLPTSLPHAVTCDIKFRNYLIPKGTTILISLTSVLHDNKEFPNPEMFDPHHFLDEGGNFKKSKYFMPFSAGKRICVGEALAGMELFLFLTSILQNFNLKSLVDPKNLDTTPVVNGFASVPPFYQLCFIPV
Protocol: Assessment of certain in vitro ADME (absorption, distribution, metabolism, and excretion) parameters for certain compounds of the invention was conducted by BioFocus (Saffron Walden, UK).

[3] = Hydrolytic stability study; type: physicochemical; conditions: DMSO:water (3:1), 1 mg/mL
Protocol: Chemical stability of compounds of the invention was assessed in a mixture of DMSO and water (3:1) at a test compound concentration of 1 mg/mL
Sample Preparation • A 1.0 mg sample of test compound was dissolved in 750 μL of DMSO. Water (250 μL) was added slowly, ensuring no precipitation occurred.
Recording Stability • A 50 μL aliquot of the test solution was removed and analysed in duplicate by 5 μL HPLC injections. The peak area for the test compound was recorded following manual integration of the corresponding UV trace. • The test solution was heated to 60° C., with stirring, and 50 μL aliquots removed for HPLC analysis at 5 and 24 h timepoints.

SMILES	KinomeScan Selectivity Score S(10) (non-mutant kinases; 50 nM)	KinomeScan Selectivity Score S(35) (non-mutant kinases; 50 nM)	number of individual kinase hits, S(1) (non-mutant kinases; 50 nM)	number of individual kinase hits, S(10) (non-mutant kinases; 50 nM)	number of individual kinase hits, S(35) (non-mutant kinases; 50 nM)	KinomeScan Selectivity Score S(1) (non-mutant kinases; 500 nM)	KinomeScan Selectivity Score S(10) (non-mutant kinases; 500 nM)	KinomeScan Selectivity Score S(35) (non-mutant kinases; 500 nM)	number of individual kinase hits, S(1) (non-mutant kinases; 500 nM)	number of individual kinase hits, S(10) (non-mutant kinases; 500 nM)	number of individual kinase hits, S(35) (non-mutant kinases; 500 nM)	selectivity compared to the Reference Compound (non-mutant kinases)	IC50 (p38 MAPKα (MAPK14))	IC50 (Syk)	inhibition at 3 µM (hERG channel)	IC50 [1]	cytokine (IL-1β, IL-6 and IL-8) release compared to the DMSO control [2]	% Parent Remaining ([3]; 0 min)	% Parent Remaining ([3]; 60° C., 300 min)	% Parent Remaining ([3]; 60° C., 1440 min)	other results
COCCOCCOCCNC(=O)c1cc(Nc2cc(Oc3ccc(NC(=O)Nc4cc(C(C)(C)C)cc(NS(C)(=O)=O)c4OC)c4ccccc34)ccn2)cc(OC)c1 [Example 3, 3-((4-((4-(3-(5-(tert-Butyl)-2-methoxy-3-(methylsulfonamido)phenyl)ureido)naphthalen-1-yl)oxy)pyridin-2-yl)amino)-5-methoxy-N-(2-(2-(2-methoxyethoxy)ethoxy)ethyl)benzamide]	0.023	0.091	0	9	36	0.046	0.149	0.235	18	59	93	substantially improved selectivities	87 nM	692 nM	-2 ± 2%	> 3000 nM					
COCCOCCOCCOc1cc(Nc2nccc(Oc3ccc(NC(=O)Nc4cc(C(C)(C)C)cc(NS(C)(=O)=O)c4OC)c4ccccc34)n2)cc(OC)c1 [Example 4, N-(5-(tert-Butyl)-2-methoxy-3-(3-(4-((2-((3-methoxy-5-(2-(2-(2-methoxyethoxy)ethoxy)-ethoxy)phenyl)amino)pyrimidin-4-yl)oxy)naphthalen-1-yl)ureido)phenyl)methanesulfonamide]													91 nM	86 nM	-4 ± 2%	> 3000 nM	significantly inhibited	100%	103%	102%	Cytokine release from biopsies of UC patients: IL-1β release [2]: 17 ± 21%; Cytokine release from biopsies of UC patients: IL-6 release [2]: 5 ± 1%; Cytokine release from biopsies of UC patients: IL-8 release [2]: 2 ± 1%; IC50 (CYP2C9; CYP2C9, 0 min preincubation): > 15 µM; IC50 (CYP2C9; CYP2C9, 30 min preincubation): > 15 µM; inhibition at 15 µM (CYP2C9; CYP2C9, 0 min preincubation): 24%; inhibition at 15 µM (CYP2C9; CYP2C9, 30 min preincubation): 41%
C#Cc1cc(Nc2nccc(Oc3ccc(NC(=O)Nc4cc(C(C)(C)C)cc(NS(C)(=O)=O)c4OC)c4ccccc34)n2)cc(C(=O)NCCOCCOCCOC)c1 [Example 16]	0.023	0.068	0	9	27	0.038	0.129	0.197	15	51	78	substantially improved selectivities					significantly inhibited	100%	100%	100%	
COc1cc(Nc2cc(Oc3ccc(NC(=O)Nc4cc(C(C)(C)C)cc(NS(C)(=O)=O)c4OC)c4ccccc34)ccn2)cc(C(=O)NCCN2CCOCC2)c1 [Example 27]													41 nM	443 nM	-3 ± 5%	> 3000 nM	significantly inhibited	100%	102%	102%	Cytokine release from biopsies of UC patients: IL-1β release [2]: 11 ± 54%; Cytokine release from biopsies of UC patients: IL-6 release [2]: 48 ± 26%; Cytokine release from biopsies of UC patients: IL-8 release [2]: 60 ± 15%; IC50 (CYP2C9; CYP2C9, 0 min preincubation): > 15 µM; IC50 (CYP2C9; CYP2C9, 30 min preincubation): > 13 µM; inhibition at 15 µM (CYP2C9; CYP2C9, 0 min preincubation): 13%; inhibition at 15 µM (CYP2C9; CYP2C9, 30 min preincubation): 55%
COc1c(NC(=O)Nc2ccc(Oc3ccnc(Nc4ccccc4)c3)c3ccccc23)cc(C(C)(C)C)cc1C(=O)NC1COC1 [Example 75, 5-(tert-Butyl)-2-methoxy-N-(oxetan-3-yl)-3-(3-(4-((2-(phenylamino)pyridin-4-yl)oxy)-naphthalen-1-yl)ureido)benzamide]	0.035	0.099	2	14	39	0.038	0.139	0.230	15	55	91	substantially improved selectivities	123 nM	214 nM	0%	> 3000 nM		100%	101%	99%	KinomeScan Selectivity Score S(1) (non-mutant kinases; 50 nM): 0.005; IC50 (CYP2C9; CYP2C9, 0 min preincubation): > 15 µM; IC50 (CYP2C9; CYP2C9, 30 min preincubation): > 15 µM; inhibition at 15 µM (CYP2C9; CYP2C9, 0 min preincubation): 20%; inhibition at 15 µM (CYP2C9; CYP2C9, 30 min preincubation): 36%
